target: human capsaicin receptor (VR1) (Homo sapiens, UniProt Q8NER1); assay: Capsaicin receptor binding assay ([3H]RTX competition, VR1-transfected HEK293 membranes)
Sequence (Q8NER1 whole entry): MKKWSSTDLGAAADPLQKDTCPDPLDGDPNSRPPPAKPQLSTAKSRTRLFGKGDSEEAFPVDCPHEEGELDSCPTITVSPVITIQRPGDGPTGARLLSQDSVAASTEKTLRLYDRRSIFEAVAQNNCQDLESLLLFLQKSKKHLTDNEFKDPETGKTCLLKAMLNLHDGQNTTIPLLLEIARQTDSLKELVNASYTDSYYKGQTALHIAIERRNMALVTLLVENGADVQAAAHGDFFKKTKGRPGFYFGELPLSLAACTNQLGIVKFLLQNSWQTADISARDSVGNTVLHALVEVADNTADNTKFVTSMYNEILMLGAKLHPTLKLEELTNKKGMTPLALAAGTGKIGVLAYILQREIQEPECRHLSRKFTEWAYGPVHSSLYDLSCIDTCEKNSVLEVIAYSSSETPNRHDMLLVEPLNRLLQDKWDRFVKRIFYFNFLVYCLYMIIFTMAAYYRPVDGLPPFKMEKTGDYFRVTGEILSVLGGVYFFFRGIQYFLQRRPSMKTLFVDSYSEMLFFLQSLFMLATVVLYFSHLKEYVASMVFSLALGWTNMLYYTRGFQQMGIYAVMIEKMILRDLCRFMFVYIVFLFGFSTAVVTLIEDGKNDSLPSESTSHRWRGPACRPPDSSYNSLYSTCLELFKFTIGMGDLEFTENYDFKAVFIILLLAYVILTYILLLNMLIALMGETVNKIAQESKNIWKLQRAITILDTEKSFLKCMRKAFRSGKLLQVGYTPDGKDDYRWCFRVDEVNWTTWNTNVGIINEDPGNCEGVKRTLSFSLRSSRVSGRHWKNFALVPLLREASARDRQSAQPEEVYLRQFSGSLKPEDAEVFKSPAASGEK

Ki, < 1 µM:
C[C@H]1CN(Cc2nc(Nc3ccc(C(C)(C)C)cc3)c3ccc(-c4ncccc4Cl)cc3n2)CCO1 [Compound 647, (S)-(4-tert-Butyl-phenyl)-[7-(3-chloro-pyridin-2-yl)-2-(2-methyl-morpholin-4-ylmethyl)-quinazolin-4-yl]-amine]
O=C(O)C1CCCN(Cc2nc(Nc3ccc(C(F)(F)F)cc3)c3ccc(-c4ncccc4C(F)(F)F)cc3n2)C1 (centres unmarked) [Compound 729, 1-[4-(4-Trifluoromethyl-phenylamino)-7-(3-trifluoromethyl-pyridin-2-yl)-quinazolin-2-ylmethyl]-piperidine-3-carboxylic acid]
COCc1nc(Nc2ccc(C#N)cc2)c2ccc(-c3ncccc3C(F)(F)F)nc2n1 [Compound 288, 4-[2-Methoxymethyl-7-(3-trifluoromethyl-pyridin-2-yl)-pyrido[2,3-d]pyrimidin-4-ylamino]-benzonitrile]
CCOc1ccc(Nc2nc(COCC(C)C)nc3nc(-c4ncccc4C(F)(F)F)ccc23)cc1 [Compound 251, (4-Ethoxy-phenyl)-[2-isobutoxymethyl-7-(3-trifluoromethyl-pyridin-2-yl)-pyrido[2,3-d]pyrimidin-4-yl]-amine]
C[C@@H]1CN(Cc2nc(Nc3ccc(C(F)(F)F)cc3)c3ccc(-c4ncccc4Cl)cc3n2)C[C@H](C)O1 [Compound 598, [7-(3-Chloro-pyridin-2-yl)-2-(2,6-dimethyl-morpholin-4-ylmethyl)-quinazolin-4-yl]-(4-trifluoromethyl-phenyl)-amine (cis)]
CCCCCCN(CCCCCC)Cc1nc(Nc2ccc(C(F)(F)F)nc2)c2ccc(-c3ncccc3C(F)(F)F)cc2n1 [Compound 386, [2-Dihexylaminomethyl-7-(3-trifluoromethyl-pyridin-2-yl)-quinazolin-4-yl]-(6-trifluoromethyl-pyridin-3-yl)-amine]
CC(=O)c1ccc(Nc2nc(CN3C[C@@H](C)O[C@H](C)C3)nc3cc(-c4ncccc4Cl)ccc23)cc1 [Compound 623, (R,R)-1-{4-[7-(3-Chloro-pyridin-2-yl)-2-(2,6-dimethyl-morpholin-4-ylmethyl)-quinazolin-4-ylamino]-phenyl}-ethanone]
O=S(=O)(c1ccc(Nc2nc(COCC3CC3)nc3cc(-c4ncccc4C(F)(F)F)ccc23)cc1)N1CCOCC1 [Compound 142, [2-Cyclopropylmethoxymethyl-7-(3-trifluoromethyl-pyridin-2-yl)-quinazolin-4-yl]-[4-(morpholine-4-sulfonyl)-phenyl]-amine]
CCOC(=O)C1CCCN(CCc2nc(Nc3ccc(C(F)(F)F)cc3)c3ccc(-c4ncccc4C(F)(F)F)cc3n2)C1 (centres unmarked) [Compound 590, 1-{2-[4-(4-Trifluoromethyl-phenylamino)-7-(3-trifluoromethyl-pyridin-2-yl)-quinazolin-2-yl]-ethyl}-piperidine-3-carboxylic acid ethyl ester]
COCCc1nc(Nc2ccc(C(C)(C)C)cc2)c2ccc(-c3ncccc3C(F)(F)F)cc2n1 [Compound 47, (4-tert-Butyl-phenyl)-[2-(2-methoxy-ethyl)-7-(3-trifluoromethyl-pyridin-2-yl)-quinazolin-4-yl]-amine]
CC(C)c1ccc(Nc2nc(CN3C[C@@H](C)O[C@H](C)C3)nc3cc(-c4ncccc4Cl)ccc23)cc1 [Compound 625, (R,R)-(4-Isopropyl-phenyl)-[7-(3-chloro-pyridin-2-yl)-2-(2,6-dimethyl-morpholin-4-ylmethyl)-quinazolin-4-yl]-amine]
O=C(c1nc(Nc2ccc(C(F)(F)F)cc2)c2ccc(-c3ncccc3C(F)(F)F)nc2n1)N1CCCC1 [Compound 459, Pyrrolidin-1-yl-[4-(4-trifluoromethyl-phenylamino)-7-(3-trifluoromethyl-pyridifl-2-yl)-pyrido[2,3-d]pyrimidin-2-yl]-methanone]
CC(C)COCc1nc(Nc2ccc(C(C)C)cc2)c2ccc(-c3ncccc3C(F)(F)F)nc2n1 [Compound 163, [2-Isobutoxymethyl-7-(3-trifluoromethyl-pyridin-2-yl)-pyrido[2,3-d]pyrimidin-4-yl]-(4-isopropyl-phenyl)-amine]
CCC1CCCCN1CCc1nc(Nc2ccc(C(F)(F)F)cc2)c2ccc(-c3ncccc3C(F)(F)F)cc2n1 (centres unmarked) [Compound 425, [2-(2-Ethyl-piperidin-1-ylethyl)-7-(3-trifluoromethyl-pyridin-2-yl)-quinazolin-4-yl]-(4-trifluoromethyl-phenyl)-amine]
FC(F)(F)c1ccc(Nc2nc(COCc3ccccc3)nc3cc(-c4ncccc4C(F)(F)F)ccc23)cn1 [Compound 25, [2-Benzyloxymethyl-7-(3-trifluoromethyl-pyridin-2-yl)-quinazolin-4-yl]-(6-trifluoromethyl-pyridin-3-yl)-amine]
Cc1cccnc1-c1ccc2c(Nc3ccc(C(F)(F)F)cc3)nc(CN3CC[C@@H](O)C3)nc2c1 [Compound 732, (R)-1-[7-(3-Methyl-pyridin-2-yl)-4-(4-trifluoromethyl-phenylamino)-quinazolin-2-ylmethyl]-pyrrolidin-3-ol]
OC1CCN(Cc2nc(Nc3ccc(C(F)(F)F)cc3)c3ccc(-c4ncccc4C(F)(F)F)cc3n2)CC1 [Compound 496, 1-[4-(4-Trifluoromethyl-phenylamino)-7-(3-trifluoromethyl-pyridin-2-yl)-quinazolin-2-ylmethyl]-piperidin-4-ol]
COCc1nc(Nc2ccc(Cl)c(C(F)(F)F)c2)c2ccc(-c3ncccc3C(F)(F)F)nc2n1 [Compound 294]
Cc1cccnc1-c1ccc2c(Nc3ccc(C(F)(F)F)cc3)nc(CN3CC[C@@H](CO)C3)nc2c1 [Compound 733, (R)-{1-[7-(3-Methyl-pyridin-2-yl)-4-(4-trifluoromethyl-phenylamino)-quinazolin-ylmethyl]-pyrrolidin-3-yl}-methanol]
FC(F)(F)c1ccc(Nc2nc([C@@H]3CCCN3)nc3cc(-c4ncccc4C(F)(F)F)ccc23)cc1 [Compound 695, (S)-[2-Pyrrolidin-2-yl-7-(3-trifluoromethyl-pyridin-2-yl)-quinazolin-4-yl]-(4-trifluoromethyl-phenyl)-amine]
C[C@H]1CN(Cc2nc(Nc3ccc(Cl)cc3)c3ccc(-c4ncccc4C(F)(F)F)cc3n2)C[C@H](C)O1 [Compound 642, (S,S)-(4-Chloro-phenyl)-[2-(2,6-dimethyl-morpholin-4-ylmethyl)-7-(3-trifluoromethyl-pyridin-2-yl)-quinazolin-4-yIl]amine]
CCOC(=O)c1nc(Nc2ccc(C(F)(F)F)cc2)c2ccc(-c3ncccc3C)nc2n1 [Compound 172, 7-(3-Methyl-pyridin-2-yl)-4-(4-trifluoromethyl-phenylamino)-pyrido[2,3-d]pyrimidine-2-carboxylic acid ethyl ester]
Cc1cccnc1-c1ccc2c(Nc3ccc(C(F)(F)F)cc3)nc(CN3CCCC(C)(C)C3)nc2c1 [Compound 731, [2-(3,3-Dimethyl-piperidin-1-ylmethyl)-7-(3-methyl-pyridin-2-yl)-quinazolin-4-yl]-(4-trifluoromethyl-phenyl)-amine]
OC1CCCN(Cc2nc(Nc3ccc(C(F)(F)F)nc3)c3ccc(-c4ncccc4C(F)(F)F)cc3n2)C1 (centres unmarked) [Compound 486, 1-[7-(3-Trifluoromethyl-pyridin-2-yl)-4-(6-trifluoromethyl-pyridin-3-ylamino)-quinazolin-2-ylmethyl]-piperidin-3-ol]
CC1CCCN(Cc2nc(Nc3ccc(C(F)(F)F)nc3)c3ccc(-c4ncccc4C(F)(F)F)cc3n2)C1 (centres unmarked) [Compound 485, [2-(3-Methyl-piperidin-1-ylmethyl)-7-(3-trifluoromethyl-pyridin-2-yl)-quinazolin-4-yl]-(6-trifluoromethyl-pyridin-3-yl)-amine]
COCc1nc(Nc2ccc(C(C)(C)C(C)=O)cc2)c2ccc(-c3ncccc3C)nc2n1 [Compound 212, 3-{4-[2-Methoxymethyl-7-(3-methyl-pyridin-2-yl)-pyrido[2,3-d]pyrimidin-4-ylamino]-phenyl}-3-methyl-butan-2-one]
C=CCN(CC=C)Cc1nc(Nc2ccc(C(F)(F)F)cc2)c2ccc(-c3ncccc3C(F)(F)F)cc2n1 [Compound 333]
Cc1cc(Nc2nc(COCC(C)C)nc3nc(-c4ncccc4C(F)(F)F)ccc23)ccc1Cl [Compound 274, (4-Chloro-3-methyl-phenyl)-[2-isobutoxymethyl-7-(3-trifluoromethyl-pyridin-2-yl)-pyrido[2,3-d]pyrimidin-4-yl]-amine]
O=C(NCC1CCCO1)c1nc(Nc2ccc(C(F)(F)F)cc2)c2ccc(-c3ncccc3C(F)(F)F)nc2n1 (centres unmarked) [Compound 457, 4-(4-Trifluoromethyl-phenylamino)-7-(3-trifluoromethyl-pyridin-2-yl)-pyrido[2,3-d]pyrimidine-2-carboxylic acid (tetrahydro-furan-2-ylmethyl)-amide]
FC(F)(F)c1ccc(Nc2nc(CCN3CCCC4CCCCC43)nc3cc(-c4ncccc4C(F)(F)F)ccc23)cc1 (centres unmarked) [Compound 408, [2-(Octahydro-quinolin-1-ylethyl)-7-(3-trifluoromethyl-pyridin-2-yl)-quinazolin-4-yl]-(4-trifluoromethyl-phenyl)-amine]
COCc1nc(Nc2ccc(S(=O)(=O)N3CCOCC3)cc2)c2ncc(-c3ncccc3Cl)cc2n1 [Compound 120, [7-(3-Chloro-pyridin-2-yl)-2-methoxymethyl-pyrido[3,2-d]pyrimidin-4-yl]-[4-(morpholine-4-sulfonyl)-phenyl]-amine]
CCN(CC)CCCNC(=O)c1nc(Nc2ccc(C(F)(F)F)cc2)c2ccc(-c3ncccc3C(F)(F)F)nc2n1 [Compound 441, 4-(4-Trifluoromethyl-phenylamino)-7-(3-trifluoromethyl-pyridin-2-yl)-pyrido[2,3-d]pyrimidine-2-carboxylic acid (3-diethylamino-propyl)-amide]

— patent US20040156869A1, “2-substituted quinazolin-4-ylamine analogues” (Neurogen Corporation, priority 2002, published 2004)
